Assay results: patent US20260015344A1, “PAN-KRAS INHIBITORS” (Mirati Therapeutics, Inc., priority 2022, published 2026)

Legend:
[1] = target: T1, KRas^G12D (Homo sapiens, UniProt P01116, G12D); assay: KRas Binding Assay (TR-FRET displacement), KRas G12D; settings: TR-FRET tracer displacement
T1 construct: corresponding to amino acids 1-169, produced at Accelegan Inc; biotin (biotinylated); purchased Accelegan Inc
Protocol: (§1) This Example illustrates that exemplary compounds of the present invention bind to KRas and are capable of displacing a labeled tracer ligand occupying the KRas binding site. KRas^WT, KRas^G12A, KRas^G12C, KRas^G12D, KRas^G12R, KRas^G12S, KRas^G12V, KRas^G13D, or KRas^Q61H was used in the assay.
(§2) The ability of a compound to bind to KRas was measured using a TR-FRET displacement assay. Biotinylated KRas (corresponding to amino acids 1-169, produced at Accelegan Inc.) was incubated with custom made Cy5 labelled tracer, terbium streptavidin (Cisbio Inc.) and compound (1% DMSO final) in buffer (50 mM HEPES, pH 7.5, 5 mM MgCl2, 0.005% Tween-20 and 1 mM DTT). After a 60-minute incubation at room temperature, the reaction was measured using a BMG LABTECH CLARIO star Plus via TR-FRET. […] The POC values were fit to a 4-parameter IC50 equation and the IC50 value reported.

[2] = target: T2, KRas^G12V (Homo sapiens, UniProt P01116, G12V); assay: KRas Binding Assay (TR-FRET displacement), KRas G12V; settings: TR-FRET tracer displacement
T2 construct: corresponding to amino acids 1-169, produced at Accelegan Inc; biotin (biotinylated); purchased Accelegan Inc
T2 sequence (P01116 1-169 isoform P01116-2 G12V): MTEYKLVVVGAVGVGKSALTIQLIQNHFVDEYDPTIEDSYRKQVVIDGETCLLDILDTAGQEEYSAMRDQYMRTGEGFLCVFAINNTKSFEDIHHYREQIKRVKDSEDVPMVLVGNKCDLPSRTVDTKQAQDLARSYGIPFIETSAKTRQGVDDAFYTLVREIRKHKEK
Protocol: as §1, §2

[3] = target: T3, KRas^G12R (Homo sapiens, UniProt P01116, G12R); assay: KRas Binding Assay (TR-FRET displacement), KRas G12R; settings: TR-FRET tracer displacement
T3 construct: corresponding to amino acids 1-169, produced at Accelegan Inc; biotin (biotinylated); purchased Accelegan Inc
T3 sequence (P01116 1-169 isoform P01116-2 G12R): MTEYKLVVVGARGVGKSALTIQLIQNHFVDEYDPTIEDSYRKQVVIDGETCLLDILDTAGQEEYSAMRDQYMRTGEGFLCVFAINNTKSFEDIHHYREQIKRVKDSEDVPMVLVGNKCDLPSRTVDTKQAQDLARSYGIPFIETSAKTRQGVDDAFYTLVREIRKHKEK
Protocol: as §1, §2

[4] = target: T4, KRas^WT (Homo sapiens, UniProt P01116); assay: KRas Binding Assay (TR-FRET displacement), KRas WT; settings: TR-FRET tracer displacement
T4 construct: corresponding to amino acids 1-169, produced at Accelegan Inc; biotin (biotinylated); purchased Accelegan Inc
T4 sequence (P01116 1-169 isoform P01116-2): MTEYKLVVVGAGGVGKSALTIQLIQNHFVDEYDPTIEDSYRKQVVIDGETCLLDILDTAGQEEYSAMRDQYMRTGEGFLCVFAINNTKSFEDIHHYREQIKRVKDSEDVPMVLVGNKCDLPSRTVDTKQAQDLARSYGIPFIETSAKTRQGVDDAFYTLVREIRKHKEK
Protocol: as §1, §2

[5] = target: T5, KRas^G13D (Homo sapiens, UniProt P01116, G13D); assay: KRas Binding Assay (TR-FRET displacement), KRas G13D; settings: TR-FRET tracer displacement
T5 construct: corresponding to amino acids 1-169, produced at Accelegan Inc; biotin (biotinylated); purchased Accelegan Inc
T5 sequence (P01116 1-169 isoform P01116-2 G13D): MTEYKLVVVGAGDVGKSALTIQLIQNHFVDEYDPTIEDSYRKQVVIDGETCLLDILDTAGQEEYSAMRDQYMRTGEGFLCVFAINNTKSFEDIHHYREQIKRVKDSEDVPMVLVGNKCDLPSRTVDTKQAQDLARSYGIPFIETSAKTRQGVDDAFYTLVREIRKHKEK
Protocol: as §1, §2

[6] = target: T6, KRas^Q61H (Homo sapiens, UniProt P01116, Q61H); assay: KRas Binding Assay (TR-FRET displacement), KRas Q61H; settings: TR-FRET tracer displacement
T6 construct: corresponding to amino acids 1-169, produced at Accelegan Inc; biotin (biotinylated); purchased Accelegan Inc
T6 sequence (P01116 1-169 isoform P01116-2 Q61H): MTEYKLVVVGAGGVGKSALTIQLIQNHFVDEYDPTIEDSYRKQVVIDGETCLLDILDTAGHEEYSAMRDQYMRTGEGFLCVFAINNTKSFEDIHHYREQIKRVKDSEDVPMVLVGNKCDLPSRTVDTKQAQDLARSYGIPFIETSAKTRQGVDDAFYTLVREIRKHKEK
Protocol: as §1, §2

[7] = target: T7, KRas^G12A (Homo sapiens, UniProt P01116, G12A); assay: KRas Binding Assay (TR-FRET displacement), KRas G12A; settings: TR-FRET tracer displacement
T7 construct: corresponding to amino acids 1-169, produced at Accelegan Inc; biotin (biotinylated); purchased Accelegan Inc
T7 sequence (P01116 1-169 isoform P01116-2 G12A): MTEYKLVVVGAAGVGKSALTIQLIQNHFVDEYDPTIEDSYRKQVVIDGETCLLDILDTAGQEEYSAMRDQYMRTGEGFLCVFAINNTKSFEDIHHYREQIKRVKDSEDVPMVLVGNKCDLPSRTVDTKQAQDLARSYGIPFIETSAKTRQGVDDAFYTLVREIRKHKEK
Protocol: as §1, §2

[8] = target: T8, KRas^G12C (Homo sapiens, UniProt P01116, G12C); assay: KRas Binding Assay (TR-FRET displacement), KRas G12C; settings: TR-FRET tracer displacement
T8 construct: corresponding to amino acids 1-169, produced at Accelegan Inc; biotin (biotinylated); purchased Accelegan Inc
T8 sequence (P01116 1-169 isoform P01116-2 G12C): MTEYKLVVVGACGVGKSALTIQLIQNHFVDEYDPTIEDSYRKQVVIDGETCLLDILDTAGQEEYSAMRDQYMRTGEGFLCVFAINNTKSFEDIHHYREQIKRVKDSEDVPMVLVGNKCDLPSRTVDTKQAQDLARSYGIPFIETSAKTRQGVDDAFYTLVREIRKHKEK
Protocol: as §1, §2

[9] = target: T9, KRas^G12S (Homo sapiens, UniProt P01116, G12S); assay: KRas Binding Assay (TR-FRET displacement), KRas G12S; settings: TR-FRET tracer displacement
T9 construct: corresponding to amino acids 1-169, produced at Accelegan Inc; biotin (biotinylated); purchased Accelegan Inc
T9 sequence (P01116 1-169 isoform P01116-2 G12S): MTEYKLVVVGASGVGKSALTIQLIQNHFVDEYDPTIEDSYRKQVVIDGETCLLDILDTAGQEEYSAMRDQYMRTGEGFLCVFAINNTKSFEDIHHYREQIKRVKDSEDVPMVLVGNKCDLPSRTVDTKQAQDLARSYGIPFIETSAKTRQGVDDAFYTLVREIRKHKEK
Protocol: as §1, §2

[10] = test system: KRas-mediated Phosphorylation of ERK in AsPC-1 cells; assay: HTRF pERK assay, AsPC-1 cells; type: cell-based; settings: Homo sapiens, ASPC1, 3 hrs compound incubation, read-out: Inhibition (HTRF IC50 nM) of KRas-mediated Phosphorylation of ERK, AsPC-1
Protocol: (§3) • Day 1: Seed 6,000 cells/well-25 μl/well in 384-well white solid bottom plate; RPM1_10% FBS.
(§4) • 1. To harvest cells from flask using 0.05% Trypsin/EDTA solution. Add 10 mL of media to stop trypsinizing. Pipette the cells into a conical bottom 50 mL centrifuge tube and centrifuge 5 min×1000 rpm. • 2. Re-suspend the cell pellet in media, take a cell count, and then adjust the cell density using fresh media. • 3. Seed 6,000 cells into cell culture plate with 50 μL media. The • 4. Incubate cell plate overnight in a 37° C., 5% CO2 incubator.
(§5) • 1. Use Tecan to complete the compound addition. Compounds start from 10 uM top, 3-fold dilution, and 10 doses. The final DMSO concentration is 0.8%. Dispensed 0.2 uM Trametinib as Min control. • 2. Incubate cell plate for 3 hrs in the incubator. Detection with Cisbio pERK HTRF Kit • 1. Dilute 1 volume of 4× lysis buffer with 3 volumes of deionized water. Then, add 100× the blocking reagent. Keep lysis buffer on the ice. • 2. At the end of the compound treatment, flick-off the media. • 3. Add 35 μL of lysis buffer per well using a Multidrop Combi. Then place on a plate agitator shaking at 300 rpm at 4° C. for 40 mins. • 4. Make up the HTRF antibody buffer. For each assay plate, mix 50 μL of d2-conjugate antibody with 950 μL of detection buffer. Similarly, mix 50 μL of Cryptate antibody with 950 μL of detection buffer. Then mix the two diluted antibodies together. • 5. Dispense 3.4 μL the antibody buffer to wells of an empty assay plate. Seal the plate and centrifuge plate 30 sec×1000 rpm. • 6. At the end of the 4° C. lysis, centrifuge the lysate plates 3 mins×1500 rpm. • 7. Use the Bravo to transfer 13.6 μL of lysate from cell culture plate to assay plate. Then incubate assay plate for 2 hrs at room temperature. • 8. At the end of incubation, read plate on the Envision after centrifuging plate 30 sec×1000 rpm.

[11] = test system: KRas-mediated Phosphorylation of ERK in H727 cells; assay: HTRF pERK assay, H727 cells; type: cell-based; settings: Homo sapiens, NCI-H727, 3 hrs compound incubation, read-out: Inhibition (HTRF IC50 nM) of KRas-mediated Phosphorylation of ERK, H727
Protocol: as §3, §4, §5

[12] = test system: KRas-mediated Phosphorylation of ERK in MKN1 cells; assay: HTRF pERK assay, MKN1 cells; type: cell-based; settings: Homo sapiens, MKN-1, 3 hour compound incubation, read-out: Inhibition (HTRF IC50 nM) of KRas-mediated Phosphorylation of ERK, MKN1
Protocol: Cisbio HTRF Advanced pERK Assay Catalog #64AERPEH • Cells: MKN1, PSN1
as §3

[13] = test system: KRas-mediated Phosphorylation of ERK in H2009 cells; assay: HTRF pERK assay, H2009 cells; type: cell-based; settings: Homo sapiens, NCI-H2009; H2009 cells by column count (c8); may be PSN1; read-out: Inhibition (HTRF IC50 nM) of KRas-mediated Phosphorylation of ERK, H2009
[14] = test system: KRas-mediated Phosphorylation of ERK in HCT116 cells; assay: HTRF pERK assay, HCT116 cells; type: cell-based; settings: Homo sapiens, HCT-116, 3 hrs compound incubation, read-out: Inhibition (HTRF IC50 nM) of KRas-mediated Phosphorylation of ERK, HCT116
Protocol: as §3, §4
as §5, with “Similarly, mix 50 μL of Cryptate antibody with 950 μL of detection buffer. Then mix the two diluted antibodies together. • 5. Dispense 3.4 μL the antibody buffer to wells of an empty assay plate. Seal the plate and centrifuge plate 30 sec×1000 rpm. • 6. At the end of the 4° C. lysis, centrifuge the lysate plates 3 mins×1500 rpm. • 7. Use the Bravo to transfer 13.6 μL of lysate from cell culture plate to assay plate. Then incubate assay plate for 2 hrs at room temperature. • 8.” left out

[15] = test system: KRas-mediated Phosphorylation of ERK in A549 cells; assay: HTRF pERK assay, A549 cells; type: cell-based; settings: Homo sapiens, 3 hrs compound incubation, read-out: Inhibition (HTRF IC50 nM) of KRas-mediated Phosphorylation of ERK, A549
Protocol: as §3, §4
as §5, with “Similarly, mix 50 μL of Cryptate antibody with 950 μL of detection buffer. Then mix the two diluted antibodies together. • 5. Dispense 3.4 μL the antibody buffer to wells of an empty assay plate. Seal the plate and centrifuge plate 30 sec×1000 rpm. • 6. At the end of the 4° C. lysis, centrifuge the lysate plates 3 mins×1500 rpm. • 7. Use the Bravo to transfer 13.6 μL of lysate from cell culture plate to assay plate. Then incubate assay plate for 2 hrs at room temperature. • 8.” left out

[16] = test system: KRas-mediated Phosphorylation of ERK in H460 cells; assay: HTRF pERK assay, H460 cells; type: cell-based; settings: Homo sapiens, NCI-H460, 3 hrs compound incubation, read-out: Inhibition (HTRF IC50 nM) of KRas-mediated Phosphorylation of ERK, H460
Protocol: as §3, §4
as §5, with “Similarly, mix 50 μL of Cryptate antibody with 950 μL of detection buffer. Then mix the two diluted antibodies together. • 5. Dispense 3.4 μL the antibody buffer to wells of an empty assay plate. Seal the plate and centrifuge plate 30 sec×1000 rpm. • 6. At the end of the 4° C. lysis, centrifuge the lysate plates 3 mins×1500 rpm. • 7. Use the Bravo to transfer 13.6 μL of lysate from cell culture plate to assay plate. Then incubate assay plate for 2 hrs at room temperature. • 8.” left out

[17] = test system: KRas-mediated Phosphorylation of ERK in H358 cells; assay: HTRF pERK assay, H358 cells; type: cell-based; settings: Homo sapiens, NCI-H358, 3 hrs compound incubation, read-out: Inhibition (HTRF IC50 nM) of KRas-mediated Phosphorylation of ERK, H358
Protocol: as §3, §4
as §5, with “Similarly, mix 50 μL of Cryptate antibody with 950 μL of detection buffer. Then mix the two diluted antibodies together. • 5. Dispense 3.4 μL the antibody buffer to wells of an empty assay plate. Seal the plate and centrifuge plate 30 sec×1000 rpm. • 6. At the end of the 4° C. lysis, centrifuge the lysate plates 3 mins×1500 rpm. • 7. Use the Bravo to transfer 13.6 μL of lysate from cell culture plate to assay plate. Then incubate assay plate for 2 hrs at room temperature. • 8.” left out

T1 sequence (P01116 1-169 isoform P01116-2 G12D): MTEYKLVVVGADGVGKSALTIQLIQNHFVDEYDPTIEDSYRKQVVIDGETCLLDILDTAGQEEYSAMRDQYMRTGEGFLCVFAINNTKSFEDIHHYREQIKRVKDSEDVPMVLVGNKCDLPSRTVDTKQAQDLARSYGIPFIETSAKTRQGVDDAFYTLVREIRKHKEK

Row | SMILES | IC50 [1] [nM] | IC50 [2] [nM] | IC50 [3] [nM] | IC50 [4] [nM] | IC50 [5] [nM] | IC50 [6] [nM] | IC50 [7] [nM] | IC50 [8] [nM] | IC50 [9] [nM] | IC50 [10] [nM] | IC50 [11] [nM] | IC50 [12] [nM] | IC50 [13] [nM] | IC50 [14] [nM] | IC50 [15] [nM] | IC50 [16] [nM] | IC50 [17] [nM]
1 | C[C@H](Oc1nc(-c2noc(C3(C)CCCc4sc(N)c(C#N)c43)n2)cc(N2C[C@H]3CC[C@@H](C2)N3)n1)[C@@H]1CCCN1C (stereo partly drawn) [Example 3, 4-(3-(6-((1R,5S)-3,8-diazabicyclo[3.2.1]octan-3-yl)-2-((S)-1-((S)-1-methylpyrrolidin-2-yl)ethoxy)pyrimidin-4-yl)-1,2,4-oxadiazol-5-yl)-2-amino-4-methyl-4,5,6,7-tetrahydrobenzo[b]thiophene-3-carbonitrile] | 18 | 767 | 728 | 195 | 315 | 656 | 879 | 1060 | 912 | 5940 | > 10000 | > 10000 | > 10000 | – | – | – | –
2 | C[C@H](Oc1nc(-c2noc(C3(C)CCCc4sc(N)c(C#N)c43)n2)cc(N2CCC[C@@](C)(O)C2)n1)[C@@H]1CCCN1C (stereo partly drawn) [Example 1, 2-amino-4-(3-(6-((R)-3-hydroxy-3-methylpiperidin-1-yl)-2-((S)-1-((S)-1-methylpyrrolidin-2-yl)ethoxy)pyrimidin-4-yl)-1,2,4-oxadiazol-5-yl)-4-methyl-4,5,6,7-tetrahydrobenzo[b]thiophene-3-carbonitrile] | 42 | 43 | 28 | 22 | 74 | 117 | 82 | 106 | 90 | 3740 | 6440 | 593 | > 10000 | – | – | – | –
3 | C[C@H](Oc1nc(-c2noc(C3(C)CCCc4sc(N)c(C#N)c43)n2)cc(N2CCOCC(C)(O)C2)n1)[C@@H]1CCCN1C (stereo partly drawn) [Example 13, 2-amino-4-(3-(6-(6-hydroxy-6-methyl-1,4-oxazepan-4-yl)-2-((S)-1-((S)-1-methylpyrrolidin-2-yl)ethoxy)pyrimidin-4-yl)-1,2,4-oxadiazol-5-yl)-4-methyl-4,5,6,7-tetrahydrobenzo[b]thiophene-3-carbonitrile] | 11 | 6 | 4 | – | – | – | – | – | – | 507 | 469 | 44 | > 10000 | 899 | 689 | 394 | 43
4 | C[C@H](Oc1nc(-c2cc(C3(C)CCCc4sc(N)c(C#N)c43)sn2)cc(N2CCCC3(CNS(=O)(=O)N3)C2)n1)[C@@H]1CCCN1C (stereo partly drawn) [Example 10, 2-amino-4-(3-(6-(2,2-dioxido-2-thia-1,3,7-triazaspiro[4.5]decan-7-yl)-2-((S)-1-((S)-1-methylpyrrolidin-2-yl)ethoxy)pyrimidin-4-yl)isothiazol-5-yl)-4-methyl-4,5,6,7-tetrahydrobenzo[b]thiophene-3-carbonitrile] | 3 | 4 | < 2 | 31 | 24 | 9 | 35 | 15 | 25 | 898 | 3900 | 10 | 9300 | 962 | 727 | 288 | 216
5 | C[C@H](Oc1nc(-c2noc(C3(C)CCCc4sc(N)c(C#N)c43)n2)cc(N2CCCn3nc(C(=O)N(C)C)cc3C2)n1)[C@@H]1CCCN1C (stereo partly drawn) [Example 6, 5-(6-(5-(2-amino-3-cyano-4-methyl-4,5,6,7-tetrahydrobenzo[b]thiophen-4-yl)-1,2,4-oxadiazol-3-yl)-2-((S)-1-((S)-1-methylpyrrolidin-2-yl)ethoxy)pyrimidin-4-yl)-N,N-dimethyl-5,6,7,8-tetrahydro-4H-pyrazolo[1,5-a][1,4]diazepine-2-carboxamide] | 1830 | 746 | 669 | 474 | 1080 | 1110 | 1590 | 1110 | 1520 | 7720 | > 10000 | – | – | – | – | – | –
